Results taken from ChEMBL document CHEMBL1158462, “Recent advances in the development of polyamine analogues as antitumor agents” (J Med Chem, 2009).

Assays:
[1] = tested on: NCI-H157; assay: Antitumor activity against human NCI-H157 cells by MTT assay; assay type: functional, cell-based
[2] = tested on: PC-3; assay: cells; settings: Homo sapiens
Description: Antitumor activity against human PC3 cells

[3] = tested on: LNCaP; assay: Antitumor activity against human LNCAP cells; assay type: functional, cell-based
[4] = tested on: DU-145; assay: Antitumor activity against human DU145 cells; assay type: functional, cell-based
[5] = tested on: DuPro; assay: Antitumor activity against human DuPro cells; assay type: functional, cell-based
[6] = tested on: A549; assay: Antitumor activity against human A549 cells; assay type: functional, cell-based
[7] = tested on: HT-29; assay: Antitumor activity against human HT-29 cells; assay type: functional, cell-based
[8] = tested on: MCF7; assay: cells; assay type: functional, cell-based; settings: Homo sapiens
Description: Antitumor activity against human MCF7 cells

[9] = Antitumor activity against human U251MG cells; assay type: functional, cell-based; settings: U-251
[10] = tested on: MCF-10A; assay: cells; assay type: functional, cell-based; settings: Homo sapiens
Description: Antitumor activity against human MCF10A cells

[11] = target: T1, Histone deacetylase (Homo sapiens) (UniProt Q13547+O15379+Q9UBN7+Q92769+Q9UQL6+Q8WUI4+Q9BY41+Q96DB2+P56524+Q9UKV0+Q969S8); settings: HeLa, at 5 µM
Description: Inhibition of HDAC from human HeLa cells assessed as of histone H3 acetylation at 5 uM

[12] = tested on: L1210; assay: Antitumor activity against mouse L1210 cells; assay type: functional, cell-based
[13] = tested on: Malme-3M; assay: Antitumor activity against human MALME-3M cells; assay type: functional, cell-based
[14] = cells; settings: Mus musculus, ML1
Description: Antitumor activity against mouse ML1 cells

[15] = Antitumor activity against human H82 cells; assay type: functional, cell-based; settings: NCI-H82
[16] = target: T1, Histone deacetylase (Homo sapiens); assay: Inhibition of HDAC from human HeLa cells assessed as induction of histone H3 acetylation at 1 uM; assay type: cell-based
[17] = tested on: HeLa; assay: Antiproliferative activity against human HeLa cells; assay type: functional, cell-based
[18] = target: T1, Histone deacetylase (Homo sapiens); assay: Inhibition of HDAC from human HeLa cells assessed as fold induction of alpha tubulin acetylation; assay type: cell-based
[19] = tested on: NCI-H69; assay: Antitumor activity against human H69 cells; assay type: functional, cell-based
[20] = tested on: MDA-MB-435; assay: Antitumor activity against human MDA-MB-435 cells; assay type: functional, cell-based
[21] = tested on: Enterocytozoon bieneusi; assay: Antimicrobial activity against Enterocytozoon bieneusi; assay type: functional, organism-based

c1ccc(C(CCNCCCNCCCCNCCCNCCC(c2ccccc2)c2ccccc2)c2ccccc2)cc1
IC50 [1]: 3800 nM

CCNCCCNCCCCNCCCNCCC(C)C
IC50 [1]: 1700 nM

CCNCCCNCCCNCCCNCC(CC)CC
IC50 [1]: 800 nM

CCNC/C=C\CNCCCCNCCCCNCCCCNCC
IC50 [2]: 80 nM
IC50 [3]: 80 nM
IC50 [4]: 250 nM
IC50 [5]: 80 nM

CCNCCCNC/C=C\CNCCCNCC
IC50 [2]: 250 nM
IC50 [6]: 250 nM
IC50 [4]: 250 nM
IC50 [7]: 250 nM
IC50 [8]: 9250 nM
IC50 [9]: 250 nM

C=C(C)CNCCCNCCCNCCCNCC
IC50 [1]: 700 nM

O=C(CCCCCCC(=O)NCc1ccc(C(=O)O)cc1)NCCCNCCCCNCC(c1ccccc1)c1ccccc1
IC50 [8]: > 30000 nM
IC50 [10]: > 30000 nM
inhibition [11]: 72.6%

CCNCC[C@@H](O)CNCCCCNC[C@H](O)CCNCC
IC50 [12]: 600 nM

CCNCCCNCCCNCCCNCCC(C)C
IC50 [1]: 600 nM

c1ccc(C(CCNCCCNCCCNCCCNCCC(c2ccccc2)c2ccccc2)c2ccccc2)cc1
IC50 [1]: 4100 nM

CCNCCCNCC1CC1CNCCCNCC (stereo not given)
IC50 [2]: ≥ 300 nM
IC50 [6]: ≥ 300 nM
IC50 [4]: ≥ 300 nM
IC50 [7]: ≥ 300 nM
IC50 [8]: ≥ 300 nM
IC50 [9]: ≥ 300 nM

Nc1ccccc1NC(=O)c1ccc(CNC(=O)CCCCCCCC(=O)NCCCNCCCCNCCC(c2ccccc2)c2ccccc2)cc1
IC50 [8]: > 30000 nM
IC50 [10]: > 30000 nM
inhibition [11]: 47%

CC(=O)C(=O)NCCCCCC(=O)NCCCNCCCCNCCC(c1ccccc1)c1ccccc1
IC50 [8]: > 30000 nM
IC50 [10]: > 30000 nM
inhibition [11]: 30.2%

Nc1ccccc1NC(=O)c1ccc(CNC(=O)CCCCC(=O)NCCCNCCCCNCc2ccccc2-c2ccccc2)cc1
IC50 [8]: > 30000 nM
IC50 [10]: > 30000 nM
inhibition [11]: 60.1%

CCNCCCCNCCCCNCCCCNCCCCNC/C=C/CNCCCCNCCCCNCCCCNCCCCNCC
IC50 [2]: 90 nM
IC50 [3]: 90 nM
IC50 [4]: 90 nM
IC50 [5]: 90 nM

CCNCCCCNCCCCNCCCCNCC [DIETHYLHOMOSPERMINE]
IC50 [13]: 1000 nM

CC(/C=C/C(=O)NO)=C\[C@@H](C)C(=O)c1ccc(N(C)C)cc1 [TRICHOSTATIN]
IC50 [14]: 250 nM

CCNCCCNCCCNCCCNCC1CCCCCC1
IC50 [15]: 700 nM
IC50 [1]: 700 nM

C(CCCNCCCNCC1CCCCCC1)CCCNCCCNCC1CCCCCC1
IC50 [1]: 2900 nM

CC(C)c1ccc(CNCCCCNCCCNCc2ccc(C(C)C)cc2)cc1
IC50 [1]: 4200 nM

CCNCCCNCCCNCCCNC(C)C
IC50 [1]: 1400 nM

CCCCNCCCCNCCCCNCCCNCC
IC50 [1]: 2200 nM

CCNC[C@H]1C[C@@H]1CNCCCCNC[C@H]1C[C@@H]1CNCC
IC50 [4]: 60 nM
IC50 [5]: 60 nM

O=C(CCCCCCC(=O)NCCCNCCCCNCCC(c1ccccc1)c1ccccc1)NO
IC50 [14]: 10000 nM
inhibition [16]: 75%

Nc1ccccc1NC(=O)c1ccc(CNC(=O)OCc2cccnc2)cc1 [ENTINOSTAT]
IC50 [14]: 750 nM

Nc1ccccc1NC(=O)c1ccc(CNC(=O)CCCCCCC(=O)NCCCNCCCCNCCC(c2ccccc2)c2ccccc2)cc1
IC50 [8]: > 30000 nM
IC50 [10]: > 30000 nM

Nc1ccccc1NC(=O)c1ccc(CNC(=O)CCCCCCCCC(=O)NCCCNCCCCNCCC(c2ccccc2)c2ccccc2)cc1
IC50 [8]: > 30000 nM
IC50 [10]: > 30000 nM
inhibition [11]: 42.9%

NCCCNCCCCCCCCNCCCN
IC50 [17]: 5000 nM

Cc1cccc(NC(=O)c2ccc(CNC(=O)CCCCCCC(=O)NCCCNCCCCNCCC(c3ccccc3)c3ccccc3)cc2)c1
IC50 [8]: > 30000 nM
IC50 [10]: > 30000 nM
inhibition [11]: 42.6%

c1ccc(-c2ccccc2CNCCCNCCCCNCCCNCc2ccccc2-c2ccccc2)cc1
IC50 [1]: 4100 nM

CC(C)(C)c1ccc(CNCCCCNCCCNC(=O)CCCCCC(=O)NO)cc1
fold change (FC) [18]: 253

CCCCCCCCCCCCCC1CC(=O)NCCCNCCCCNCCCN1 (stereo not given) [BUDMUNCHIAMINE L4]
IC50 [2]: 600 nM
IC50 [5]: 600 nM

CCNCCCNCCCCNCCCNCC [BIS(ETHYL)SPERMINE]
IC50 [12]: 500 nM

CCNCCCNCCCCNCCCNCCC(C)(C)C
IC50 [15]: 900 nM
IC50 [6]: 900 nM
IC50 [1]: 1800 nM
IC50 [19]: 900 nM

CC(C)c1ccc(CNCCCNCCCNCCCNCc2ccc(C(C)C)cc2)cc1
IC50 [1]: 4100 nM

CCNCCCNCc1ccccc1CNCCCNCC
IC50 [2]: > 30000 nM
IC50 [6]: > 30000 nM
IC50 [4]: > 30000 nM
IC50 [7]: > 30000 nM
IC50 [8]: > 30000 nM
IC50 [9]: > 30000 nM

Nc1ccccc1NC(=O)c1ccc(CNC(=O)CCCCC(=O)NCCCNCCCCNCCC(c2ccccc2)c2ccccc2)cc1
IC50 [8]: > 30000 nM
IC50 [10]: > 30000 nM
inhibition [11]: 48.4%

CC1(C)C2CCC(CNCCCNCCCNCCCNCC3CCC4CCC3C4(C)C)C1CC2 (stereo not given)
IC50 [1]: 2800 nM

c1ccc(-c2ccccc2CNCCCCNCCCNCc2ccccc2-c2ccccc2)cc1
IC50 [1]: 4000 nM

CC(C)(C)c1ccc(CNCCCNCCCNCCCNCc2ccc(C(C)(C)C)cc2)cc1
IC50 [1]: 4200 nM

CCNCCCNCC#CCNCCCNCC
IC50 [2]: > 30000 nM
IC50 [6]: > 30000 nM
IC50 [4]: > 30000 nM
IC50 [7]: > 30000 nM
IC50 [8]: > 30000 nM
IC50 [9]: > 30000 nM

c1ccc(CCc2ccccc2CNCCCCNCCCNCc2ccccc2CCc2ccccc2)cc1
IC50 [1]: 4200 nM

CCNC/C=C\CNCCCCNCCCCNC/C=C\CNCC
IC50 [2]: 140 nM
IC50 [3]: 140 nM
IC50 [4]: 140 nM
IC50 [5]: 140 nM

CCNCCCNCCCNCCCNCC [BIS(ETHYL)NORSPERMINE]
IC50 [13]: 200 nM
IC50 [12]: 200 nM

CCNCCCNCC1CCC1CNCCCNCC (stereo not given)
IC50 [2]: ≥ 100 nM
IC50 [6]: ≥ 100 nM
IC50 [4]: ≥ 100 nM
IC50 [7]: ≥ 100 nM
IC50 [8]: ≥ 100 nM
IC50 [9]: ≥ 100 nM

CC(C)NCCCNCCCCNCCCNC(C)C
IC50 [13]: 3000 nM

FC(F)(F)Sc1ccc(CNCCCNCCCNCCCNCc2ccc(SC(F)(F)F)cc2)cc1
IC50 [1]: 3600 nM

c1ccc(-c2ccccc2CNCCCNCCCNCCCNCc2ccccc2-c2ccccc2)cc1
IC50 [1]: 4200 nM

CCNCCCCNCCCCNCCCCNC/C=C/CNCCCCNCCCCNCCCCNCC
IC50 [20]: 130 nM
IC50 [2]: 130 nM
IC50 [3]: 130 nM
IC50 [4]: 130 nM
IC50 [21]: 130 nM
IC50 [5]: 130 nM

CCNCCCNCCCNCCCNCCSc1ccccc1
IC50 [1]: 300 nM

CCNCCCNCCCNCCCNC(C)CC (stereo not given)
IC50 [15]: 800 nM
IC50 [6]: 800 nM
IC50 [1]: 1300 nM
IC50 [19]: 800 nM

CCNCCCNCCCCNCCCNCC(CC)CC
IC50 [1]: 3100 nM

CCNCCCCNCCCCNCCCCNCCCCNCC
IC50 [2]: 100 nM
IC50 [3]: 100 nM
IC50 [4]: 100 nM

Cc1ccc(CNCCCCNC(=O)CCCCCC(=O)NCc2ccc(C(=O)Nc3ccccc3N)cc2)cc1
IC50 [8]: 900 nM
IC50 [10]: 24000 nM
inhibition [11]: 48.1%

CCSCCNCCCNCCCNCCCNCCSCC
IC50 [1]: 1400 nM

CCNCCCCNC[C@@H]1C[C@H]1NCCCCNCC
IC50 [2]: 250 nM
IC50 [6]: 250 nM
IC50 [4]: 250 nM
IC50 [7]: 250 nM
IC50 [8]: > 30000 nM
IC50 [9]: 250 nM

COc1cc(C(C)(C)C)cc(C(C)(C)C)c1CNCCCNCCCNCCCNCc1c(OC)cc(C(C)(C)C)cc1C(C)(C)C
IC50 [1]: 4000 nM

CCNCCCNCCCNCCCNC[C@@H](C)CC
IC50 [15]: 1300 nM
IC50 [1]: 1300 nM

c1ccc(C(CCNCCCCNCCCNCCC(c2ccccc2)c2ccccc2)c2ccccc2)cc1
IC50 [1]: 4600 nM

CCNCCCNCCCNCCCNCCSCC
IC50 [1]: 300 nM

CCNCCCCNC[C@H]1C[C@@H]1CNCCCCNC[C@H]1C[C@@H]1CNCCCCNCC
IC50 [4]: 120 nM
IC50 [5]: 120 nM

CC(C)(C)c1ccc(CNCCCCNC(=O)CCCCCCC(=O)c2ncco2)cc1
IC50 [8]: 27000 nM
IC50 [10]: > 30000 nM
inhibition [11]: 43.7%
